Reference: patent publication US20250387425A1 (ANDA BIOLOGY MEDICINE DEVELOPMENT (SHENZHEN) CO., LTD., priority 2022, published 2025)

Key:
[1] = test system: MX1; assay: Knock down of MX1 in PBMCs by siRNA, qPCR and tumor killing; assay type: cell-based, human; details: MX1 depletion by siRNA vs negative control oligonucleotides
Procedure: PBMCs were cultured in X-VIVO 15 medium (Lonza) supplemented with 10% Fetal Bovine Serum (Gemini), Penicillin-Streptomycin (Gibco), Antibiotic-Antimycotic (Gibco), 20 ng/ml recombinant human IL-7 (R&D), 50 U/ml recombinant human IL-2 (R&D) for one week. Then, TransIT-TKO kit (Mirus) was used to transient transfect MX1 siRNA into PBMCs. After 3 days of culture at 37° C., PBMCs were collected. A part of PBMCs co-incubated with tumor cells to test the killing effect of PBMCs after siRNA interference. The other part of PBMCs was extracted RNA with AllPrep DNA/RNA Kits (QIAGEN) and reverse transcription to cDNA with PrimeScript RT reagent Kit (Takara), and then used NovoStart SYBR qPCR SuperMix Plus (Novoprotein) performs qPCR to verify the efficiency of siRNA interference. The relative expressions of MX1 gene at the mRNA level was calculated by the 2-ΔΔCt method. GAPDH was used as a housekeeping gene.

[2] = test system: neoantigen-specific T-cell clones in blood; assay: DNA-barcoded neoantigen-peptide-MHC tetramers with single-cell TCR sequencing (patient P6); assay type: cell-based, human; details: blood of patient P6

Substance | anti-tumor ability of immune cells in PBMC [1] | tetramer-positive T-cell clones (peptide-MHC HLA-A*11:01 tetramer) [2]
5′-GCTTTGTGAATTACAGGACAT-3′ (only one strand given, further chemistry not given here) [MX1 siRNA, siRNA transiently transfected into PBMCs to knock down MX1] | remarkably impaired | –
YVECGKAFK [neoantigen-peptide-85-epitopel] | – | No tetramer-positive T-cell clones
